Assay results: patent US20230126310A1 (priority 2020, published 2023)
Counter-ions that a name gives are not always drawn. Like-named read-outs stand apart in the source and are kept apart here.

Columns and labels:
SARS-CoV-2 [1] = assay: microbe, parasite or virus in culture; settings: Severe acute respiratory syndrome coronavirus 2, Caco-2, 48 h
SARS-CoV-2 [2] = settings: for % Inh. (% Inhibition of SARS-CoV-2): 10 µM
[3] = Compound cytotoxicity against CaCo-2 cells at 48 hours; format: cell-based, Human; settings: human, CaCo-2 cells; Table 5, further results of Examples 1 and 2; mean ± spread
Method: The cytotoxicity of the profiled compounds towards CaCo-2 cells at 48 hours was assessed. […] After 48 hours, cytotoxicity was evaluated using both digital phase contrast readout as described above and ATP determination (Cell titre-glo, Promega Corp).

Compound | % Inh. (% Inhibition of SARS-CoV-2) (SARS-CoV-2 [2]) | also measured
Cn1c(C#N)ccc1-c1ccc2c(c1)C(C)(C)OC(=S)N2 [Tanaproget] | – | IC50 (SARS-CoV-2 [1]): > 1000 nM; inhibition at 10 µM (SARS-CoV-2 [1]; read-out: % Inh. (% Inhibition of SARS-CoV-2)): 96.2%; IC50 (SARS-CoV-2 [1]; read-out: pIC50 (converted)): 1120 nM; IC50 (SARS-CoV-2 [2]): 1130 nM
NC(=O)N1CCC(CC(=O)N2CCC([C@H]3c4ncc(Br)cc4CCc4cc(Cl)cc(Br)c43)CC2)CC1 [Lonafarnib (SCH66336), Lonafarnib] | – | CC50 at 48 h [3]: 10700 ± 7390 nM
COc1cc(/C=C2\CCCN([C@@H](C)c3ccc(F)cc3)C2=O)ccc1-n1cnc(C)c1 [E 2012] | 100.8% | –
CC(C)[C@H]1c2ccc(F)cc2CC[C@@]1(CCN(C)CCCc1nc2ccccc2[nH]1)OC(=O)C1CC1 [NNC-55-0396] | 58.1% | –
COc1cc2c(cc1OC)CN(C(=O)/C=C/c1c(-c3ccccc3)n(C)c3ncccc13)CC2 [SIS3] | 99.3% | –
Rupatadine Fumarate | 72.1% | –
Cn1c(Nc2ccc(C(F)(F)F)cc2)nc2cc(Oc3ccnc(-c4ncc(C(F)(F)F)[nH]4)c3)ccc21 [RAF265 (CHIR-265)] | 93.2% | –
COc1cc2ncnc(Nc3cccc(Cl)c3)c2cc1OC [AG-1478 (Tyrphostin AG-1478), Tyrphostin AG-1478] | 73.9% | –
O=C(Cc1ccc(-c2ccc(OCCN3CCOCC3)cc2)cn1)NCc1ccccc1 [KX2-391] | 79.9% | –
CC(C)(NS(=O)(=O)c1ccc(Oc2ccc(F)cc2)cc1)C(=O)NO [CP-471474] | 86.9% | –
O=C(Nc1cnccc1Cl)N1CCN(Cc2ccc3c(c2)OC(F)(F)O3)CC1 [JNJ-42165279] | 94.9% | –
Cc1sc2c(c1C)C(c1ccc(Cl)cc1)=N[C@@H](CC(=O)Nc1ccc(OCCOCCOCCOCCNc3cccc4c3C(=O)N(C3CCC(=O)NC3=O)C4=O)cc1)c1nnc(C)n1-2 (stereo partly drawn) [ARV-825] | 52.8% | –
CC1(C)CC(=O)c2c(C(F)(F)F)nn(-c3ccc(C(N)=O)c(N[C@H]4CC[C@H](OC(=O)CN)CC4)c3)c2C1 [PF-04929113 (SNX-5422)] | 91.3% | –
CNC(=O)c1ccccc1Nc1nc(Nc2ccc(N3CCOCC3)cc2OC)ncc1Cl [NVP-TAE226] | 73.2% | –
CC(C)(C)c1cc(C(=O)/C=C/c2ccc(C(=O)O)cc2)cc(C(C)(C)C)c1 [CH55] | 87.5% | –
N[C@H]1CCN(O)C1=O [HA-966-(S)-(−)] | 52.3% | –
CNC(=O)c1cccc(NC(=O)N2CCC(Oc3ccccc3Cl)CC2)c1 [A-939572] | 78.8% | –
Cc1ccc2cc(-c3c(C)ccc(C(=O)c4c(-c5ccccc5)n(C)n(-c5ccccc5)c4=O)c3N)ccc2n1 [AMG-PERK-44] | 127.9% | –
CC(C)(C)n1nc(-c2cccc3ccccc23)c2c(N)ncnc21 [1-naphthyl-PP1] | 94.1% | –
CN(C)CCNc1nc2cc(O)ccc2c2c1C(=O)c1ccccc1-2.Cl.Cl [TAS-103 (dihydrochloride)] | 92.6% | –
O=C1Nc2ccc(Cl)c3c2C1(CCCCN1CC=C(c2ccc(Cl)cc2)CC1)CCC3 (stereo not drawn) [DR-4485] | 82.8% | –
COc1ccc(OC)c(CN(C(C)=O)c2cc(F)ccc2Oc2ccccc2)c1 [DAA-1106] | 91.0% | –
CNC(=O)Nc1ccc(-c2nc(N3CC4CCC(C3)O4)c3cnn(C4CCC5(CC4)OCCO5)c3n2)cc1 [WYE-125132] | 99.7% | –

Compound | % Inh. (% Inhibition of SARS-CoV-2) (SARS-CoV-2 [2]) | also measured
O=[N+]([O-])c1ccccc1S(=O)(=O)NCC1CCC(CNC[C@H]2CCc3ccccc3C2)CC1 (stereo partly drawn) [NTNCB] | 92.7% | –
CCCCN1C[C@H](O)[C@@H](O)[C@H](O)[C@H]1CO [Miglustat (n-Butyldeoxynojirimycin)] | 64.4% | –
NC(CO)(CO)CO.Nc1nccc(Oc2ccc(NC(=O)c3cn(COP(=O)(O)O)cc(-c4ccc(F)cc4)c3=O)cc2F)c1Cl [SCR-1481B1] | 89.3% | –
CC(C)NC(=O)c1ccc(C#Cc2ccncc2)cn1 [LSN-2463359] | 74.9% | –
Cl.Cl.Fc1ccc(C(OCCN2CCN(C/C=C/c3ccccc3)CC2)c2ccc(F)cc2)cc1 [GBR-13069] | 66.7% | –
O=S(=O)(NCCCCCCc1ccccc1)c1cccc2c(Cl)cccc12 [SC-9] | 83.4% | –
N#CC(=C(N)Sc1ccc(N)cc1)c1ccccc1C(F)(F)F [MEK1-2-inhibitor] | 66.9% | –
I-BET151 (GSK1210151A) | 56.0% | –
O=C1OC2(c3cc(I)c(O)c(I)c3Oc3c2cc(I)c(O)c3I)c2c(Cl)c(Cl)c(Cl)c(Cl)c21 [rose-bengal-lactone] | 57.6% | –
FC(F)(F)c1ccc(CNc2ccc(Cc3c[nH]c4ncccc34)cn2)cc1 [PLX-647] | 95.7% | –
O=C(Nc1ccc(CN2CCOCC2)cc1)c1ccc(-c2cccc(Cl)c2)o1 [CID-2011756] | 97.0% | –
Chlorophyllin (sodium copper salt) | 66.7% | –
C=C[C@@]1(C)CC(=O)[C@]2(O)[C@@]3(C)[C@@H](O)CCC(C)(C)[C@@H]3[C@H](OC(=O)CCN(C)C)[C@H](OC(C)=O)[C@@]2(C)O1 [colforsin-daproate] | 80.3% | –
CCCCCCCCc1ccc(-c2ccc(C(=O)O)cc2)cc1 [AC-55649] | 63.1% | –
Cc1ccc2c(=O)c3ccccc3n(CCCN)c2c1C.O=C(O)/C=C\C(=O)O [ER-27319 maleate] | 101.0% | –
Exatecan Mesylate | 70.1% | –
CC(C)C(C(=O)Nc1nccs1)c1ccc(Cl)cc1 (stereo not drawn) [4-CMTB] | 87.1% | –
O=c1oc(-c2ccc(C(F)(F)F)cc2)nn1Cc1cc(Cl)ccc1O [BMS-191011] | 52.3% | –
CC(C)(N)c1cc(C(=O)N[C@@H]2CCc3ccc(Oc4ccnc5c4CCC(=O)N5)cc3C2)cc(C(F)(F)F)c1 [ML-786] | 105.5% | –
O=C1NC(=O)c2cc(Nc3ccccc3)c(Nc3ccccc3)cc21 [CGP-52411] | 94.5% | –
c1ccc2sc(SN3CCOCC3)nc2c1 [N-oxydiethylenebenzothiazole-2-sulfenamide] | 64.6% | –
COc1ccc2nc3c(c(N)c2c1)CCCC3 [7-methoxytacrine] | 58.7% | –
CSc1ccccc1Nc1nc(N2CCNCC2)nc2c(NCC3CC3)ncnc12 [KHK-IN-1 (hydrochloride)] | 71.8% | –

Compound | % Inh. (% Inhibition of SARS-CoV-2) (SARS-CoV-2 [2]) | also measured
Nc1cccc(CNC(=O)c2ccc(Oc3ccc(OCc4cccc(F)c4)cc3)nc2)c1 [YM-244769] | 60.4% | –
NC(=O)Nc1sc(-c2ccc(F)cc2)cc1C(N)=O [TPCA-1] | 103.5% | –
CCN(CC)CC1CCN(c2ncc3ncnc(Nc4ccc(F)c(Cl)c4)c3n2)CC1.Cl.Cl [BIBU-1361] | 78.5% | –
O=C1/C(=C/c2ccccc2)C[C@@]2(O)[C@H]3Cc4ccc(O)c5c4[C@@]2(CCN3CC2CC2)[C@H]1O5 [BNTX] | 77.3% | –
CCOc1cc(C(=O)Nc2ccc(Cl)c(-c3nc4ccccc4[nH]3)c2)cc(OCC)c1OCC [SANT-2] | 84.1% | –
O=C1NC(=O)/C(=C/c2ccc3nccc(-c4ccncc4)c3c2)S1 [GSK1059615] | 92.4% | –
Cc1ccc([N+](=O)[O-])cc1S(=O)(=O)N(C)/N=C/c1cnc2ccc(Br)cn12 [PIK-75] | 87.6% | –
COc1ccc(C[C@H]2NC[C@H](O)[C@H]2OC(C)=O)cc1 [anisomycin] | 88.1% | –
CC(C)c1c2cc(-c3ccnc(NC4CCC(NC5CCOCC5)CC4)n3)ccc2nn1C (stereo not drawn) [LY2857785] | 89.1% | –
c1ccc(CCCCN2CCC(c3ccccc3)CC2)cc1 [4-PPBP] | 63.1% | –
C[C@]12CC[C@H]3[C@@H](CC[C@]4(O)C[C@@H](O)CC[C@]34C=O)[C@@]1(O)CC[C@@H]2C1=CC(=O)OC1 [Strophantidin] | 67.1% | –
CCCCCCN(CCCCCC)C(=O)Cc1c(-c2ccc(F)cc2)[nH]c2ccccc12 [FGIN-1-27] | 73.5% | –
COc1ccc2nc3cc(Cl)ccc3c(Nc3cc(CN4CCCC4)c(O)c(CN4CCCC4)c3)c2n1.O=P(O)(O)O.O=P(O)(O)O.O=P(O)(O)O.O=P(O)(O)O [PYRONARIDINE TETRAPHOSPHATE] | 80.6% | –
N#Cc1ccc(-c2csc(NN=C3CCCC3)n2)cc1 [remodelin] | 99.4% | –
NCC(=O)Nc1ccc(-n2nc(C(F)(F)F)cc2-c2ccc3c(ccc4ccccc43)c2)cc1 [AR-12] | 85.7% | –
CC[C@H](CO)Nc1nc(NCc2ccc(-c3ccccn3)cc2)c2ncn(C(C)C)c2n1 [CR8-(R)] | 76.6% | –
C=CC(=O)Nc1ccc2ncnc(Nc3cccc(Br)c3)c2c1 [PD168393] | 51.5% | –
COc1cc(N2CCC(N)CC2)ccc1Nc1ncc(Cl)c(-c2c[nH]c3ccccc23)n1 [AZD3463] | 96.5% | –
Cc1cc(I)ccc1Nc1c(C(=O)NOCC2CC2)cc(F)c(F)c1F [PD-198306] | 51.6% | –
C[n+]1c2cc(N)ccc2cc2ccc(N)cc21.[Cl-] [ACRIFLAVINIUM HYDROCHLORIDE] | – | % Inh. (% Inhibition of SARS-CoV-2) (SARS-CoV-2 [2]; HYDROCHLORIDE): 99.5%; % Inh. (% Inhibition of SARS-CoV-2) (SARS-CoV-2 [2]; listed as Acriflavine hydrochloride, HYDROCHLORIDE): 69.4%
CCc1nc2ccc(Cl)cn2c1C(=O)NCc1ccc(N2CCC(c3ccc(OC(F)(F)F)cc3)CC2)cc1 [Q-203] | 96.9% | –
CC(C)c1ccc2c(c1)CC[C@H]1[C@](C)(CN)CCC[C@]21C [lylamine] | 76.4% | –
